Laboratory results published in US20070059756A1, “Immunointeractive molecules and their uses in treating subjects suffering from Hev b 5 allergies” (priority 1999, published 2007).

Experiments:
[1] = test system: IFNγ; experiment: IFNγ production by latex specific oligoclonal T cells (ELISA on culture supernatants); format: cell-based, human; details: supernatant at 48 hours
Protocol: (§1) Representative stimulatory and non-stimulatory peptides were selected and T cells cultured in triplicate with these peptides. At 48 hours 50 μl of supernatant was harvested from the cultures and IL-5 and IFNγ were assayed by ELISA using paired cytokine antibodies (from Pharmingen Becton Dickinson, USA and Endogen, USA respectively). For this, opaque flat bottom ELISA plates (Nalgene, Nunc International) were coated with 30 μl capture antibody at 2 μg/ml in 0.1 M NaHCO3 pH 8.2 coating buffer overnight at 4° C. After washing three times with PBS/0.5% Tween the wells were blocked with 3% BSA/PBS at room temperature for 2 hours. The plates were washed and 30 μL pooled triplicate culture supernatants added in duplicate. […] Light emission was read immediately on a Lumicount microplate Glow Luminometer (Packard Instrument Company). A standard curve was run each time using known concentrations of standard cytokine samples and the concentrations of IL-S and IFNγ in the culture supernatants calculated accordingly. The lower limit of detection of the IL-5 assay was 20 pg/ml and the lower limit of detection of the IFN-γ assay was 2 pg/ml.

[2] = test system: IL-5; experiment: IL-5 production by latex specific oligoclonal T cells (ELISA on culture supernatants); format: cell-based, human; details: for IL-5: supernatant at 48 hours
Protocol: as §1

[3] = test system: latex specific T cell lines; experiment: Oligoclonal T cell proliferation assay (3H-thymidine incorporation); format: cell-based, human; design: key to Proliferation inducing (+) or non-inducing (−) peptide: Proliferation inducing and non-inducing peptides are indicated by (+) and (−) respectively; Proliferation inducing and non-inducing peptides are indicated by (+) and (−) respectively; details: for Oligoclonal proliferative response: 4 day cultures
Protocol: Latex specific T cell lines were isolated using our well established methods for the generation of allergen specific oligoclonal T cell populations (O'Hehir et al., 1987). An initial primary culture was performed for each patient to determine the optimal concentration of LAL for stimulation. For this, peripheral blood mononuclear cells (PBMC) separated from heparinised venous blood by density centrifugation (2×10^5/well) were stimulated with LAL over a concentration range 0.03 to 100 μg/ml, with control cultures of PBMC alone or stimulated with tetanus toxoid. All cultures were maintained in complete medium (RPMI-1640, Gibco Life Technologies supplemented with 2 mmol/L L-glutamine, 100 IU/ml penicillin-streptomycin and 5% screened, heat inactivated human AB serum [Sigma]). […] Therefore, to generate T cell lines, PBMC (2.5×10^6/well) were stimulated for 1 week with LAL at a concentration of 20 μg/ml in 24-well tissue culture plates (Costar, USA). After 7 days, lymphoblasts (1×10^6/well) were restimulated for one week with LAL at a concentration of 20 μg/ml in the presence of an equal number of irradiated (3000 rad) autologous PBMC as antigen presenting cells (APC). On days 2 and 4, cultures were supplemented with Lymphocult-T (5% v/v; Biotest Folex, Germany) and fresh medium. At the end of the second week, lymphoblasts were restimulated for one week with rhev b 5/MBP at a concentration of 20 μg/ml as described above. Oligoclonal T cells were recovered, washed and tested in proliferation and cytokine assays (as described below) either fresh or after cryopreservation in liquid nitrogen. We have previously shown that CD4^+ T cells are preferentially expanded in these cultures.
Oligoclonal T cell blasts (5×10^4) were incubated in 96-well round bottom plates (Linbro, ICN Biomedicals, USA) in triplicate with equal numbers of irradiated APC in the presence of LAL at concentrations ranging from 0.03-100 μg/ml, rHev b 5/MBP (10 and 20 μg/ml), MBP (10 and 20 μg/ml), overlapping peptides of the Hev b 5 sequence (10 and 30 μg/ml), Lymphocult-T (10 IU/ml) or PHA (3 μg/ml). Cultures of T cells and APC in the absence of antigen, T cells alone and APC alone in the absence of antigen were included as controls. After 72 hours cultures were pulsed with 1 μCi of ^3H-thymidine (^3HTdR; Du Pont, NEN) and harvested 12-16 hours later. Proliferation as correlated with ^3HTdR incorporation was measured by liquid scintillation spectroscopy. Results are expressed as mean counts per minute (cpm) for triplicate cultures with standard deviation (SD; ±20% for all experiments).

[4] = test system: IgE; details: cited from earlier work
[5] = P1 T cell line, peptide 10 μg/ml
[6] = P1 T cell line, peptide 30 μg/ml
[7] = P2 T cell line, peptide 10 μg/ml
[8] = P2 T cell line, peptide 30 μg/ml
[9] = P3 T cell line, peptide 10 μg/ml
[10] = P3 T cell line, peptide 30 μg/ml
[11] = P4 T cell line, peptide 10 μg/ml
[12] = P4 T cell line, peptide 30 μg/ml

Molecule: TPEKEEPTAAPAEPEAPAPE [Hev b 5 (46-65)]
- IFNγ [1, 5]: 2 pg/mL
- IFNγ [1, 6]: 2 pg/mL
- IFNγ [1, 7]: 18 pg/mL
- IFNγ [1, 8]: 54 pg/mL
- IFNγ [1, 9]: 388 pg/mL
- IFNγ [1, 10]: 227 pg/mL
- IFNγ [1, 11]: 25 pg/mL
- IFNγ [1, 12]: 12 pg/mL
- IL-5/IFNγ ratio [2, 5]: 172
- IL-5 [2, 5]: 344 pg/mL
- IL-5/IFNγ ratio [2, 6]: 139.5
- IL-5 [2, 6]: 279 pg/mL
- IL-5/IFNγ ratio [2, 7]: 3.2
- IL-5 [2, 7]: 58 pg/mL
- IL-5/IFNγ ratio [2, 8]: 7.6
- IL-5 [2, 8]: 408 pg/mL
- IL-5/IFNγ ratio [2, 9]: 9.8
- IL-5 [2, 9]: 3799 pg/mL
- IL-5/IFNγ ratio [2, 10]: 14
- IL-5 [2, 10]: 3186 pg/mL
- IL-5/IFNγ ratio [2, 11]: 22.4
- IL-5 [2, 11]: 561 pg/mL
- IL-5/IFNγ ratio [2, 12]: 43.2
- IL-5 [2, 12]: 519 pg/mL
- secretion of IL-5 (in words) ([2]; patient 4 T cell line): secretion of IL-5
- Proliferation inducing (+) or non-inducing (−) peptide ([3]; P1 T cell line): 46-65 (+)
- Oligoclonal proliferative response ([3]; P1 T cell line, antigen 10 μg/ml): 21.3 counts per minute × 10^−3
- Oligoclonal proliferative response ([3]; P1 T cell line, antigen 30 μg/ml): 19.6 counts per minute × 10^−3
- Proliferation inducing (+) or non-inducing (−) peptide ([3]; P2 T cell line): 46-65 (+)
- Oligoclonal proliferative response ([3]; P2 T cell line, antigen 10 μg/ml): 13.4 counts per minute × 10^−3
- Oligoclonal proliferative response ([3]; P2 T cell line, antigen 30 μg/ml): 22.6 counts per minute × 10^−3
- Proliferation inducing (+) or non-inducing (−) peptide ([3]; P3 T cell line): 46.65 (+)
- Oligoclonal proliferative response ([3]; P3 T cell line, antigen 10 μg/ml): 25.8 counts per minute × 10^−3
- Oligoclonal proliferative response ([3]; P3 T cell line, antigen 30 μg/ml): 19.2 counts per minute × 10^−3
- Proliferation inducing (+) or non-inducing (−) peptide ([3]; P4 T cell line): 46-65 (+)
- Oligoclonal proliferative response ([3]; P4 T cell line, antigen 10 μg/ml): 4.4 counts per minute × 10^−3
- Oligoclonal proliferative response ([3]; P4 T cell line, antigen 30 μg/ml): 5.3 counts per minute × 10^−3
- Oligoclonal proliferative response ([3]; P5 T cell line, antigen 10 μg/ml): 4.9 counts per minute × 10^−3
- Oligoclonal proliferative response ([3]; P5 T cell line, antigen 30 μg/ml): 5.6 counts per minute × 10^−3
- Oligoclonal proliferative response ([3]; P6 T cell line, antigen 10 μg/ml): 1.5 counts per minute × 10^−3
- Oligoclonal proliferative response ([3]; P6 T cell line, antigen 30 μg/ml): 1.2 counts per minute × 10^−3
- stimulation index ([3]; fifth of five donors (patient 5)): 5.6
- stimulation index ([3]; first of five donors with IgE reactivity to rHev b 5/MBP (patient 1)): 5.9
- donors whose T cells proliferated in response to the peptide ([3]; five donors with IgE reactivity to rHev b 5/MBP): all five donors
- stimulation index ([3]; fourth of five donors (patient 4)): 5.9
- stimulation index ([3]; second of five donors (patient 2)): 10.8
- stimulation index ([3]; third of five donors (patient 3)): 5.0

B1: Hev b 5: major allergen in natural rubber latex, highly acidic and proline rich protein of Hevea brasiliensis (protein, listed as Hevea brasiliensis)
chain: MASVEVESAATALPKNETPEVTKAEETKTEEPAAPPASEQETADATPEKEEPTAAPAEPEAPAPETEKAEEVEKIEKTEEPAPEADQTTPEEKPAEPEPVAEEEPKHETKETETEAPAAPAEGEKPAEEEKPITEAAETATTEVPVEKTEE
- proportion of HCW with latex allergy whose IgE reacts ([4]; HCW): 92%
- proportion of spina bifida patients with latex allergy whose IgE reacts ([4]; spina bifida patients): 56%
